Values quoted from earlier work, collected in patent US12048763B2, “Compositions and methods for treating sialorrhea” (priority 2021, dated 2024).

Settings: by 6 months

In the case of `C[N+]1(C)CCC(OC(=O)C(O)(c2ccccc2)C2CCCC2)C1` (stereo not shown) [glycopyrrolate], the “participants no longer taking the drug due to adverse effects” value is given as 45%.
